In patent US20160297851A1, “BROAD SPECTRUM […]” (priority 2012, published 2016):
Converted amounts (≈) assume the structure as drawn. Like-named read-outs stand apart in the source and are kept apart here.

Columns and labels:
wild type E. coli MG1655 = test: microbe, parasite or virus in culture; type: cell-based, Escherichia coli
[1] = system: E. coli PAS0232 (SPase P84S); type: cell-based, Escherichia coli
[2] = system: lepB(P29S) S. aureus 8325; test: microbe, parasite or virus in culture; type: cell-based, Staphylococcus aureus; details: for MIC: Sensitive (genetically sensitized) strain; for minimal inhibitory concentration (MIC): Table 3, P3 position derivatives, unit not given
[3] = system: wild type P. aeruginosa PAO1; test: microbe, parasite or virus in culture; type: cell-based, Pseudomonas aeruginosa; details: Resistant strain (wild type)
[4] = system: spsB(S29P) S. epidermidis RP62A; test: microbe, parasite or virus in culture; type: cell-based, Staphylococcus epidermidis
wild type S. aureus 8325 = test: microbe, parasite or virus in culture; type: cell-based, Staphylococcus aureus
[5] = system: P. aeruginosa PAS2006 (SPase P84S); type: cell-based, Pseudomonas aeruginosa
[6] = system: S. epidermidis PAS9002 (SPase S31P); type: cell-based, Staphylococcus epidermidis
[7] = system: wild type S. epidermidis RP62A; test: microbe, parasite or virus in culture; type: cell-based, Staphylococcus epidermidis; details: for MIC: Sensitive strain (SPase without the resistance-conferring Pro); for minimal inhibitory concentration (MIC): Table 3, P3 position derivatives, unit not given
[8] = system: lepB(P84L) E. coli MG1655; test: microbe, parasite or virus in culture; type: cell-based, Escherichia coli; details: for minimal inhibitory concentration (MIC): Table 3, P3 position derivatives, unit not given
[9] = system: lepB(P84L) P. aeruginosa PAO1; test: microbe, parasite or virus in culture; type: cell-based, Pseudomonas aeruginosa; details: for minimal inhibitory concentration (MIC): Table 3, P3 position derivatives, unit not given
[10] = system: S. epidermidis, S. aureus, E. coli, and P. aeruginosa; test: MIC panel; type: cell-based; details: all bacteria / organisms tested
[11] = system: Streptococcus pneumoniae R800; test: microbe, parasite or virus in culture; type: cell-based; details: Streptococcus pneumoniae, R800; read-out: MIC
[12] = system: Rhodococcus equi ATCC 6939; test: microbe, parasite or virus in culture; type: cell-based; details: Rhodococcus (subgen. Prescottella) equi, ATCC6939
[13] = system: Corynebacterium glutamicum DSM 44475; test: microbe, parasite or virus in culture; type: cell-based; details: DSM44475
[14] = system: Streptococcus pyogenes M1-5448; test: microbe, parasite or virus in culture; type: cell-based; details: Streptococcus pyogenes, M15448; read-out: MIC
[15] = system: Corynebacterium efficiens DSM 44549; test: microbe, parasite or virus in culture; type: cell-based; details: Corynebacterium efficiens, DSM44549; read-out: MIC
[16] = system: Streptococcus agalactiae COH-1; test: microbe, parasite or virus in culture; type: cell-based
[17] = system: Rhodococcus opacus DSM 1069; test: microbe, parasite or virus in culture; type: cell-based; details: Rhodococcus opacus, DSM1069; read-out: MIC
[18] = system: Brevibacillus brevis ATCC 8246; test: microbe, parasite or virus in culture; type: cell-based; details: ATCC8246
Lactococcus lactis = test: microbe, parasite or virus in culture; type: cell-based; details: Lactococcus lactis, several values = different isolates/subspecies; read-out: MIC
[19] = system: S. epidermidis ATCC 35984; test: MIC of selected compounds; type: cell-based; details: Table 1
[20] = system: Gram-negative strains (E. coli, P. aeruginosa); test: MIC panel; type: cell-based; details: Gram-negative pathogens
[21] = system: Gram-positive bacteria (S. epidermidis, S. aureus); test: MIC panel; type: cell-based
[22] = Escherichia coli, MG1655, Resistant strain (wild type), read-out: MIC
[23] = Staphylococcus epidermidis, read-out: MIC

Q: Which results are given for arylomycin C16?
A: MIC (wild type E. coli MG1655; Resistant strain (wild type)): >128 µg/mL; MIC [1]: 2 µg/mL; MIC [2]: 2 µg/mL; MIC [3]: >128 µg/mL; MIC [4]: 8 µg/mL; MIC (wild type S. aureus 8325; Resistant strain (wild type)): >128 µg/mL; MIC [5]: 8 µg/mL; MIC [6]: >128 µg/mL; MIC [7]: 0.25 µg/mL

Q: With `CCCCCCCCCCCCCCCC(=O)N(C)[C@H](CO)C(=O)N[C@H](C)C(=O)NCC(=O)N(C)[C@@H]1C(=O)N[C@@H](CCCO)C(=O)N[C@H](C(=O)O)Cc2ccc(O)c(c2)-c2cc1ccc2O` [Compound 31] as the molecule, how does the “minimal inhibitory concentration (MIC)” value [2] read?
A: >64

Q: And the “minimal inhibitory concentration (MIC)” value [8]?
A: >64

Q: What about the “minimal inhibitory concentration (MIC)” value [9] of the same molecule?
A: >64

Q: And the activity in words [10]?
A: All activity was lost

Q: And the “minimal inhibitory concentration (MIC)” value [7]?
A: >64

Q: Which MIC [11] does the source give for `CCCCCCCCCCCCCCCC(=O)N(C)[C@H](CO)C(=O)N[C@H](C)C(=O)NCC(=O)N(C)[C@@H]1C(=O)N[C@@H](C)C(=O)N[C@H](C(=O)O)Cc2cc(c(O)c([N+](=O)[O-])c2)-c2cc1ccc2O` [Arylomycin B-C16, arylomycin B-C16] here?
A: 16 µg/mL (≈ 17.3 µM)

Q: And the activity in words (wild type E. coli MG1655)?
A: no activity

Q: What about the MIC (wild type E. coli MG1655; [22]) of the same molecule?
A: > 64 µg/mL

Q: And the activity in words [2]?
A: has activity

Q: And the MIC ([2]; Staphylococcus aureus, read-out: MIC)?
A: 8 µg/mL

Q: What about the MIC [12] of the same molecule?
A: 32 µg/mL (≈ 34.6 µM)

Q: And the MIC [13]?
A: 2 µg/mL (≈ 2.16 µM)

Q: And the activity in words [8]?
A: has activity

Q: What about the MIC ([8]; Escherichia coli, MG1655, Sensitive (genetically sensitized) strain, read-out: MIC) of the same molecule?
A: 2 µg/mL

Q: And the MIC [14]?
A: 4 µg/mL (≈ 4.32 µM)

Q: And the MIC [15]?
A: 16 µg/mL (≈ 17.3 µM)

Q: And the “fold more activity than arylomycin C16” value [16]?
A: greater than 16 fold

Q: And the MIC ([16]; Streptococcus agalactiae, COH1)?
A: 8 µg/mL (≈ 8.64 µM)

Q: And the activity in words [9]?
A: has activity

Q: What about the MIC ([9]; Pseudomonas aeruginosa, PAO1, Sensitive (genetically sensitized) strain, read-out: MIC) of the same molecule?
A: 4 µg/mL

Q: And the MIC [17]?
A: 4 µg/mL (≈ 4.32 µM)

Q: What about the MIC [18] of the same molecule?
A: > 64 µg/mL

Q: And the MIC (Lactococcus lactis)?
A: 32 µg/mL (≈ 34.6 µM)

Q: What about the activity in words [7] of the same molecule?
A: potent activity

Q: And the MIC [7, 23]?
A: 0.13 µg/mL (≈ 0.14 µM)

Q: With arylomycin A2 [reference compound] as the molecule, how does the MIC (wild type E. coli MG1655; Table 1, E. coli MG1655) read?
A: >128 µM

Q: And the MIC (wild type S. aureus 8325; Table 1, S. aureus 8325)?
A: >128 µM

Q: What about the MIC [19] of the same molecule?
A: 1 µM

Q: For `CCCCCCCCCCCCCCCC(=O)N(C)[C@H](CO)C(=O)N[C@H](C)C(=O)NCC(=O)N(C)[C@@H]1C(=O)N[C@@H](CCCCO)C(=O)N[C@H](C(=O)O)Cc2ccc(O)c(c2)-c2cc1ccc2O` [Compound 32], which “minimal inhibitory concentration (MIC)” value [2] is on record?
A: >64

Q: And the “minimal inhibitory concentration (MIC)” value [8]?
A: >64

Q: What about the “minimal inhibitory concentration (MIC)” value [9] of the same molecule?
A: >64

Q: What about the activity in words [10] of the same molecule?
A: All activity was lost

Q: What about the “minimal inhibitory concentration (MIC)” value [7] of the same molecule?
A: >64

Q: Which results are given for `CCCCCCCCCCCCCCCC(=O)N(C)[C@H](CO)C(=O)N[C@H](C)C(=O)NCC(=O)N(C)[C@@H]1C(=O)N[C@@H](C)C(=O)N[C@H](C(=O)O)Cc2cc(N)c(O)c(c2)-c2cc1ccc2O` [Compound 36]?
A: fold loss of activity relative to the parent compounds [20]: 8 fold; fold loss of activity relative to the parent compounds [21]: 32 fold; MIC (wild type E. coli MG1655; [22]): > 64 µg/mL; MIC [18]: > 64 µg/mL; MIC [7, 23]: 8 µg/mL (≈ 8.93 µM)
